# Measurements as given in ChEMBL document CHEMBL1201862, “PubChem BioAssay data set” (2004).
#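 Test compounds were applied to cells in 96-well plates for 48 hours at 5 doses. GI50: concentration for 50% inhibition of growth.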 The source made the active and inactive calls. No stated cut-off is given here; in the data, active = GI50 up to about 1.1 µM and inactive = higher.
# How the values were obtained:
# Test in all cases: NCI tumour cell line growth inhibition, 48 h
# SK-MEL-5 = tested on: SK-MEL-5
# SF-295 = tested on: SF-295
# DMS-273 = tested on: DMS-273
# MOLT-4 = tested on: MOLT-4
# ACHN = tested on: ACHN
# K562 = tested on: K562
# NCI-H460 = tested on: NCI-H460
# RPMI-8226 = tested on: RPMI-8226
# COLO 205 = tested on: COLO 205
# SK-MEL-28 = tested on: SK-MEL-28
# 786-0 = tested on: 786-0
# OVCAR-8 = tested on: OVCAR-8
# UACC-62 = tested on: UACC-62
# EKVX = tested on: EKVX
# HCT-116 = tested on: HCT-116
# M14 = tested on: M14
# RXF 393 = tested on: RXF 393
# SNB-78 = tested on: SNB-78
# HL-60 = tested on: HL-60
# DMS-114 = tested on: DMS-114
# NCI-H23 = tested on: NCI-H23
# IGROV-1 = tested on: IGROV-1
# SF-268 = tested on: SF-268
# SNB-75 = tested on: SNB-75
# SN12C = tested on: SN12C
# SNB-19 = tested on: SNB-19
# SR = tested on: SR
# A498 = tested on: A498
# UACC-257 = tested on: UACC-257
# CCRF-CEM = tested on: CCRF-CEM
# HOP-62 = tested on: HOP-62
# LOX IMVI = tested on: LOX IMVI
# M19-MEL = tested on: M19-MEL
# HCT-15 = tested on: HCT-15
# SW-620 = tested on: SW-620
# NCI-H522 = tested on: NCI-H522
# A549 = tested on: A549
# HT-29 = tested on: HT-29
# KM12 = tested on: KM12
# LXFL 529 = tested on: LXFL 529
# DLD-1 = tested on: DLD-1
# HOP-18 = tested on: HOP-18
# SF-539 = tested on: SF-539
# U-251 = tested on: U-251
# NCI-H226 = tested on: NCI-H226
# OVCAR-4 = tested on: OVCAR-4
# CAKI-1 = tested on: CAKI-1
# OVCAR-3 = tested on: OVCAR-3
# SK-OV-3 = tested on: SK-OV-3
# Malme-3M = tested on: Malme-3M
# HOP-92 = tested on: HOP-92
# OVCAR-5 = tested on: OVCAR-5
# SK-MEL-2 = tested on: SK-MEL-2
# UO-31 = tested on: UO-31
# KM-20L2 = tested on: KM-20L2
# TK-10 = tested on: TK-10
# HCC 2998 = tested on: HCC 2998
# MCF7 = tested on: MCF7
# NCI/ADR-RES = tested on: NCI/ADR-RES
compound,measurement,setting,value
CC1(C)S[C@H](c2ccccc2C(=O)O)N[C@@H]1CC(=O)O,GI50,SK-MEL-5,> 100 µM (inactive)
same,GI50,SF-295,> 100 µM (inactive)
same,GI50,DMS-273,> 100 µM (inactive)
same,GI50,MOLT-4,> 100 µM (inactive)
same,GI50,ACHN,> 100 µM (inactive)
same,GI50,K562,> 100 µM (inactive)
same,GI50,NCI-H460,> 100 µM (inactive)
same,GI50,RPMI-8226,> 100 µM (inactive)
same,GI50,COLO 205,> 100 µM (inactive)
same,GI50,SK-MEL-28,> 100 µM (inactive)
same,GI50,786-0,> 100 µM (inactive)
same,GI50,OVCAR-8,> 100 µM (inactive)
same,GI50,UACC-62,> 100 µM (inactive)
same,GI50,EKVX,> 100 µM (inactive)
same,GI50,HCT-116,> 100 µM (inactive)
same,GI50,M14,> 100 µM (inactive)
same,GI50,RXF 393,> 100 µM (inactive)
same,GI50,SNB-78,> 100 µM (inactive)
same,GI50,HL-60,> 100 µM (inactive)
same,GI50,DMS-114,> 100 µM (inactive)
same,GI50,NCI-H23,> 100 µM (inactive)
same,GI50,IGROV-1,> 100 µM (inactive)
same,GI50,SF-268,> 100 µM (inactive)
same,GI50,SNB-75,> 100 µM (inactive)
same,GI50,SN12C,> 100 µM (inactive)
same,GI50,SNB-19,> 100 µM (inactive)
same,GI50,SR,> 100 µM (inactive)
same,GI50,A498,> 100 µM (inactive)
same,GI50,UACC-257,> 100 µM (inactive)
same,GI50,CCRF-CEM,> 100 µM (inactive)
same,GI50,HOP-62,> 100 µM (inactive)
same,GI50,LOX IMVI,> 100 µM (inactive)
same,GI50,M19-MEL,> 100 µM (inactive)
same,GI50,HCT-15,> 100 µM
same,GI50,SW-620,> 100 µM (inactive)
same,GI50,NCI-H522,> 100 µM (inactive)
same,GI50,A549,> 100 µM (inactive)
same,GI50,HT-29,> 100 µM (inactive)
same,GI50,KM12,> 100 µM (inactive)
same,GI50,LXFL 529,> 100 µM (inactive)
same,GI50,DLD-1,> 100 µM (inactive)
same,GI50,HOP-18,> 100 µM (inactive)
same,GI50,SF-539,> 100 µM (inactive)
same,GI50,U-251,> 100 µM (inactive)
same,GI50,NCI-H226,> 100 µM (inactive)
same,GI50,OVCAR-4,> 100 µM (inactive)
N#CC1(C#N)C(c2ccc(C3C(C#N)(C#N)C3(C#N)C#N)cc2)C1(C#N)C#N,GI50,SK-MEL-5,> 100 µM (inactive)
same,GI50,SF-295,> 100 µM (inactive)
same,GI50,CAKI-1,> 100 µM (inactive)
same,GI50,DMS-273,> 100 µM (inactive)
same,GI50,MOLT-4,> 100 µM (inactive)
same,GI50,ACHN,> 100 µM (inactive)
same,GI50,OVCAR-3,> 100 µM (inactive)
same,GI50,K562,> 100 µM (inactive)
same,GI50,NCI-H460,> 100 µM (inactive)
same,GI50,RPMI-8226,> 100 µM (inactive)
same,GI50,COLO 205,> 100 µM (inactive)
same,GI50,SK-MEL-28,> 100 µM (inactive)
same,GI50,SK-OV-3,> 100 µM (inactive)
same,GI50,Malme-3M,> 100 µM (inactive)
same,GI50,HOP-92,> 100 µM (inactive)
same,GI50,786-0,> 100 µM (inactive)
same,GI50,OVCAR-8,> 100 µM (inactive)
same,GI50,UACC-62,> 100 µM (inactive)
same,GI50,EKVX,> 100 µM (inactive)
same,GI50,OVCAR-5,> 100 µM (inactive)
same,GI50,M14,> 100 µM (inactive)
same,GI50,RXF 393,> 100 µM (inactive)
same,GI50,HL-60,> 100 µM (inactive)
same,GI50,DMS-114,> 100 µM (inactive)
same,GI50,NCI-H23,> 100 µM (inactive)
same,GI50,IGROV-1,> 100 µM (inactive)
same,GI50,SK-MEL-2,> 100 µM (inactive)
same,GI50,SF-268,> 100 µM (inactive)
same,GI50,SNB-75,> 100 µM (inactive)
same,GI50,SN12C,> 100 µM (inactive)
same,GI50,UO-31,> 100 µM (inactive)
same,GI50,SNB-19,> 100 µM (inactive)
same,GI50,UACC-257,> 100 µM (inactive)
same,GI50,CCRF-CEM,> 100 µM (inactive)
same,GI50,HOP-62,> 100 µM (inactive)
same,GI50,LOX IMVI,> 100 µM (inactive)
same,GI50,KM-20L2,> 100 µM (inactive)
same,GI50,M19-MEL,> 100 µM (inactive)
same,GI50,TK-10,> 100 µM (inactive)
same,GI50,HCT-15,> 100 µM
same,GI50,SW-620,> 100 µM (inactive)
same,GI50,NCI-H522,58.3 µM (inactive)
same,GI50,A549,> 100 µM (inactive)
same,GI50,HT-29,> 100 µM (inactive)
same,GI50,KM12,> 100 µM (inactive)
same,GI50,LXFL 529,> 100 µM (inactive)
same,GI50,DLD-1,> 100 µM (inactive)
same,GI50,HCC 2998,> 100 µM (inactive)
same,GI50,HOP-18,> 100 µM (inactive)
same,GI50,SF-539,> 100 µM (inactive)
same,GI50,U-251,> 100 µM (inactive)
same,GI50,OVCAR-4,> 100 µM (inactive)
Oc1cc(O)cc(/C=C/c2ccc(O)c(O)c2)c1 [PICEATANNOL],GI50,SK-MEL-5,11.1 µM (inactive)
same,GI50,SF-295,16.5 µM (inactive)
same,GI50,CAKI-1,4.35 µM (inactive)
same,GI50,DMS-273,12.3 µM (inactive)
same,GI50,MOLT-4,5.51 µM (inactive)
same,GI50,OVCAR-3,25.8 µM (inactive)
same,GI50,K562,4.49 µM (inactive)
same,GI50,NCI-H460,22.2 µM (inactive)
same,GI50,RPMI-8226,10.3 µM (inactive)
same,GI50,COLO 205,23.3 µM (inactive)
same,GI50,SK-MEL-28,49.9 µM (inactive)
same,GI50,MCF7,20.1 µM (inactive)
same,GI50,SK-OV-3,18.9 µM (inactive)
same,GI50,Malme-3M,26.1 µM (inactive)
same,GI50,HOP-92,12.3 µM (inactive)
same,GI50,OVCAR-8,24.2 µM (inactive)
same,GI50,UACC-62,3.53 µM (inactive)
same,GI50,EKVX,28.2 µM (inactive)
same,GI50,OVCAR-5,5.06 µM (inactive)
same,GI50,HCT-116,7.45 µM (inactive)
same,GI50,RXF 393,8.77 µM (inactive)
same,GI50,SNB-78,17.9 µM (inactive)
same,GI50,HL-60,2.74 µM (inactive)
same,GI50,DMS-114,5.66 µM (inactive)
same,GI50,NCI-H23,17.3 µM (inactive)
same,GI50,IGROV-1,9.64 µM (inactive)
same,GI50,SK-MEL-2,3.87 µM (inactive)
same,GI50,SF-268,8.59 µM (inactive)
same,GI50,SNB-75,14.1 µM (inactive)
same,GI50,SN12C,12.4 µM (inactive)
same,GI50,UO-31,10.4 µM (inactive)
same,GI50,SNB-19,24.8 µM (inactive)
same,GI50,A498,40.9 µM (inactive)
same,GI50,UACC-257,> 76.6 µM (inactive)
same,GI50,CCRF-CEM,4.32 µM (inactive)
same,GI50,HOP-62,16.3 µM (inactive)
same,GI50,LOX IMVI,11.9 µM (inactive)
same,GI50,KM-20L2,23.4 µM (inactive)
same,GI50,M19-MEL,12.2 µM (inactive)
same,GI50,HCT-15,5.9 µM
same,GI50,SW-620,13 µM (inactive)
same,GI50,NCI-H522,2.75 µM (inactive)
same,GI50,A549,18.8 µM (inactive)
same,GI50,HT-29,23.2 µM (inactive)
same,GI50,KM12,3.52 µM (inactive)
same,GI50,DLD-1,8.57 µM (inactive)
same,GI50,NCI/ADR-RES,16.6 µM (inactive)
same,GI50,HCC 2998,16.7 µM (inactive)
same,GI50,HOP-18,45.5 µM (inactive)
same,GI50,SF-539,8.91 µM (inactive)
same,GI50,U-251,15.4 µM (inactive)
same,GI50,NCI-H226,19.5 µM (inactive)
same,GI50,OVCAR-4,15.5 µM (inactive)
